The term CC50 denotes the concentration at which the toxic effect on the cells reaches its halfway point.

Our source for the CC50 and MIC values is ChEMBL document CHEMBL4513161, “CO-ADD screening of MMV (CH) - Pandemic Response Box” (2021).

The subject of one assay is HEK293. As to the kind of experiment: cells. To be noted: Homo sapiens, ATCC CRL1573, HEK293; ASSAY_TEST Inhibition of Cell Viability; detection method Resazurin; Fluorescence (ex560/em590); MEDIA DMEM with 10% FBS; plate type 384well; TC; CORNING #3712; time 18 hr; read-out: CC50. Format: functional, Homo sapiens, ATCC CRL1573. In general terms: The colour change of resazurin is a common sign of viable cells or microbes.

Assay [1] deals with Pseudomonas aeruginosa. As to the kind of experiment: Antibacterial activity against Pseudomonas aeruginosa PAO397 [PAO1 d(mexAB-oprM) d(mexCD-oprJ) d(mexEF-oprN) d(mexJKL) d(mexXY) d(opmH)] (CO-ADD:GN_211); MIC in CAMBH media using NBS plates, by OD(600). The following applies: ASSAY_TEST Inhibition of Bacterial Growth, detection method Absorption (OD600), MEDIA CAMHB, plate type 384well, CORNING #3640, time 18 hr. Format: functional.

Another assay relates to Staphylococcus aureus. Kind of assay: microbe, parasite or virus in culture. To be noted: ATCC 43300, 18 h, ASSAY_TEST Inhibition of Bacterial Growth, detection method Absorption (OD600), MEDIA CAMHB, plate type 384well, NBS, CORNING #3640.
In another assay the test system is Escherichia coli. As to the kind of experiment: microbe, parasite or virus in culture. To be noted: ATCC 25922, 18 h, ASSAY_TEST Inhibition of Bacterial Growth, detection method Absorption (OD600), MEDIA CAMHB, plate type 384well, NBS, CORNING #3640.
A further assay deals with Klebsiella pneumoniae. As to the kind of experiment: microbe, parasite or virus in culture. The following applies: ATCC 700603, 18 h, ASSAY_TEST Inhibition of Bacterial Growth, detection method Absorption (OD600), MEDIA CAMHB, plate type 384well, NBS, CORNING #3640.
The test system of assay [2] is Pseudomonas aeruginosa. Kind of assay: microbe, parasite or virus in culture. To be noted: ATCC 27853, 18 h, ASSAY_TEST Inhibition of Bacterial Growth, detection method Absorption (OD600), MEDIA CAMHB, plate type 384well, NBS, CORNING #3640.
Description: Antibacterial activity against Pseudomonas aeruginosa ATCC 27853 (CO-ADD:GN_042); MIC in CAMBH media using NBS plates, by OD(600)
For a further assay, the system named is Acinetobacter baumannii. As to the kind of experiment: microbe, parasite or virus in culture. To be noted: ATCC 19606, 18 h, ASSAY_TEST Inhibition of Bacterial Growth, detection method Absorption (OD600), MEDIA CAMHB, plate type 384well, NBS, CORNING #3640.
In another assay the test system is Candida albicans. Kind of assay: microbe, parasite or virus in culture. The following applies: ATCC 90028, ASSAY_TEST Inhibition of Fungal Growth, detection method Absorption (OD530), plate type 384well, NBS, CORNING #3640.

≈ marks a conversion by molar mass, not a printed value. Where a name gives a salt, the structure may show the parent alone.

Description for Acinetobacter baumannii: Antibacterial activity against Acinetobacter baumannii ATCC 19606 (CO-ADD:GN_034); MIC in CAMBH media using NBS plates, by OD600
Description for Candida albicans: Antifungal activity against Candida albicans ATCC 90028 (CO-ADD:FG_001); MIC in YNB media using NBS plates, by OD630
Description for Cryptococcus neoformans: Antifungal activity against Cryptococcus neoformans H99 ATCC 208821 (CO-ADD:FG_002); MIC in YNB media using NBS plates, by Resazurin OD(600-570)
Description for Escherichia coli: Antibacterial activity against Escherichia coli ATCC 25922 (CO-ADD:GN_001); MIC in CAMBH media using NBS plates, by OD(600)
Description for Klebsiella pneumoniae: Antibacterial activity against Klebsiella pneumoniae MDR ATCC 70063 (CO-ADD:GN_003); MIC in CAMBH media using NBS plates, by OD(600)
Description for Staphylococcus aureus: Antibacterial activity against Staphylococcus aureus MRSA ATCC 43300 (CO-ADD:GP_020); MIC in CAMBH media, using NBS plates, by OD(600)

Turning to `CN(C(=O)C1(c2ccc(Cl)cc2)CCC1)c1ccccc1`, the CC50 with HEK293 is above 20 µM. Besides, the MIC in the assay with Pseudomonas aeruginosa [1], in the assay with Cryptococcus neoformans, with Staphylococcus aureus, in the assay on Escherichia coli, against Klebsiella pneumoniae and in the assay with Pseudomonas aeruginosa [2] was above 20 µM throughout. Further, the MIC in the assay with Acinetobacter baumannii and with Candida albicans was above 20 µM in each case.
For the molecule `O=C(O)c1cc(-c2ccc(Br)cc2)nc2ccc(Cl)cc12`, the CC50 in the assay on HEK293 was above 20 µM. Also, the MIC in the assay with Pseudomonas aeruginosa [1], against Cryptococcus neoformans, against Staphylococcus aureus, against Escherichia coli, against Klebsiella pneumoniae and in the assay on Pseudomonas aeruginosa [2] was above 20 µM each time. The MIC with Acinetobacter baumannii and against Candida albicans was above 20 µM each time.
`CC(C)(C)c1ccc(C(Cn2cccc(C(F)(F)F)c2=O)NC2Cc3ccccc3C2)cc1` (stereo not drawn): in the assay on HEK293, the CC50 was above 20 µM. The MIC in the assay with Pseudomonas aeruginosa [1], in the assay on Cryptococcus neoformans, in the assay with Staphylococcus aureus, in the assay on Escherichia coli, in the assay on Klebsiella pneumoniae and against Pseudomonas aeruginosa [2] was above 20 µM throughout. The MIC against Acinetobacter baumannii and in the assay on Candida albicans was above 20 µM throughout.
On to `Nc1nc(C(F)(F)F)cc2c1[nH]c(=O)n2Cc1ccccc1`, for which the CC50 in the assay with HEK293 was above 20 µM. Further, the MIC in the assay with Pseudomonas aeruginosa [1], in the assay on Cryptococcus neoformans, in the assay with Staphylococcus aureus, against Escherichia coli, in the assay with Klebsiella pneumoniae and against Pseudomonas aeruginosa [2] was above 20 µM throughout. Further, the MIC in the assay with Acinetobacter baumannii and in the assay on Candida albicans was above 20 µM throughout.
For the molecule `CCCCc1ccc(-c2nc(C)c(C(=O)OC)s2)cc1`, the CC50 in the assay on HEK293 is above 20 µM. In addition, the MIC with Pseudomonas aeruginosa [1], against Cryptococcus neoformans, against Staphylococcus aureus, in the assay on Escherichia coli, against Klebsiella pneumoniae and in the assay on Pseudomonas aeruginosa [2] was above 20 µM throughout. Further, the MIC in the assay on Acinetobacter baumannii and with Candida albicans was above 20 µM throughout.
`CN1CCN(Cc2ccc(-c3cnc4[nH]cc(-c5ccc6[nH]ccc6c5)c4c3)cc2)CC1`: in the assay on HEK293, the CC50 was determined as 5.33 µM. In addition, the MIC against Pseudomonas aeruginosa [1], in the assay on Cryptococcus neoformans, with Staphylococcus aureus, against Escherichia coli, against Klebsiella pneumoniae and against Pseudomonas aeruginosa [2] was above 20 µM throughout. Further, the MIC in the assay with Acinetobacter baumannii and with Candida albicans was above 20 µM throughout.
Consider `CC1(C)CC(NC(=O)C(=O)Nc2ccc(Cl)cc2)CC(C)(C)N1`, for which the CC50 in the assay on HEK293 is above 20 µM. Also, the MIC in the assay on Pseudomonas aeruginosa [1], with Cryptococcus neoformans, against Staphylococcus aureus, in the assay on Escherichia coli, with Klebsiella pneumoniae and in the assay on Pseudomonas aeruginosa [2] was above 20 µM in each case. The MIC against Acinetobacter baumannii and against Candida albicans was above 20 µM each time.
As to `COc1cc(C(C(=O)NC2CCCCC2)N(C(=O)Cc2c[nH]c3ccccc23)c2ccc(C(C)C)cc2)cc(OC)c1OC` (stereo not drawn), the CC50 in the assay with HEK293 is above 20 µM. For the same molecule, the MIC against Pseudomonas aeruginosa [1], in the assay with Cryptococcus neoformans, in the assay on Staphylococcus aureus, against Escherichia coli, in the assay with Klebsiella pneumoniae and with Pseudomonas aeruginosa [2] was above 20 µM in each case. Besides, the MIC in the assay with Acinetobacter baumannii and against Candida albicans was above 20 µM in each case.
Consider `CNC(=O)C1O[C@@H](n2cnc3c(NCc4cccc(I)c4)nc(Cl)nc32)[C@H](O)[C@@H]1O` (stereo partly drawn), for which the CC50 in the assay on HEK293 was found to be 18.3 µM. The MIC in the assay with Pseudomonas aeruginosa [1], with Cryptococcus neoformans, in the assay on Staphylococcus aureus, in the assay with Escherichia coli, with Klebsiella pneumoniae and in the assay with Pseudomonas aeruginosa [2] was above 20 µM throughout. In addition, the MIC against Acinetobacter baumannii and against Candida albicans was above 20 µM throughout.
Turning to `CCCC1(C2CC2)c2cc(Cl)ccc2NC(=O)N1C` (stereo not drawn), in the assay on HEK293, the CC50 was above 20 µM. The MIC in the assay on Pseudomonas aeruginosa [1], against Cryptococcus neoformans, with Staphylococcus aureus, with Escherichia coli, with Klebsiella pneumoniae and in the assay with Pseudomonas aeruginosa [2] was above 20 µM throughout. Further, the MIC in the assay with Acinetobacter baumannii and in the assay with Candida albicans was above 20 µM throughout.
In the case of `Oc1c(C(Nc2nc3ccccc3s2)c2ccc(OC(F)F)cc2)ccc2cccnc12` (stereo not drawn), the CC50 with HEK293 was 9.22 µM. Further, the MIC against Pseudomonas aeruginosa [1], against Cryptococcus neoformans, with Staphylococcus aureus, in the assay on Escherichia coli, against Klebsiella pneumoniae and in the assay on Pseudomonas aeruginosa [2] was above 20 µM each time. Besides, the MIC against Acinetobacter baumannii and in the assay on Candida albicans was above 20 µM in each case.
For `Cc1ccc(Oc2ccccc2-c2csc(N=C3NCCCN3)n2)c(C)c1` [ABAFUNGIN], in the assay with HEK293, the CC50 is above 20 µM. For the same molecule, the MIC against Pseudomonas aeruginosa [1], against Cryptococcus neoformans, with Staphylococcus aureus, in the assay on Escherichia coli, against Klebsiella pneumoniae and in the assay on Pseudomonas aeruginosa [2] was above 20 µM each time. In addition, the MIC against Acinetobacter baumannii is above 20 µM; against Candida albicans it was 0.312 µM (≈ 0.118 µg/mL).
`Nc1nc2c(ncn2COCCO)c(=O)[nH]1` [ACYCLOVIR]: the CC50 with HEK293 was above 20 µM. For the same molecule, the MIC in the assay on Pseudomonas aeruginosa [1], against Cryptococcus neoformans, in the assay on Staphylococcus aureus, against Escherichia coli, with Klebsiella pneumoniae and against Pseudomonas aeruginosa [2] was above 20 µM each time. Besides, the MIC in the assay with Acinetobacter baumannii and against Candida albicans was above 20 µM in each case.
Regarding `CCCCC(CC)CNC(=N)NC(=N)NCCCCCCNC(=N)NC(=N)NCC(CC)CCCC` (stereo not drawn) [ALEXIDINE DIHYDROCHLORIDE], the CC50 in the assay on HEK293 was 2.61 µM. Besides, the MIC is 5 µM in the assay on Pseudomonas aeruginosa [1]; at most 0.156 µM against Cryptococcus neoformans; at most 0.156 µM with Staphylococcus aureus; 1.25 µM in the assay on Escherichia coli; 5 µM in the assay with Klebsiella pneumoniae; 5 µM with Pseudomonas aeruginosa [2]. The MIC against Acinetobacter baumannii was 10 µM; with Candida albicans, 0.625 µM.
Take `OB1OCc2cc(Cl)ccc21` [AN-2718]: the 50% cytotoxic concentration (CC50) in the assay with HEK293 is above 20 µM. The MIC against Pseudomonas aeruginosa [1], against Cryptococcus neoformans, against Staphylococcus aureus, against Escherichia coli, in the assay on Klebsiella pneumoniae and in the assay on Pseudomonas aeruginosa [2] was above 20 µM each time. Also, the MIC in the assay on Acinetobacter baumannii is above 20 µM; in the assay with Candida albicans, 5 µM (≈ 0.842 µg/mL).
Consider `NCC(=O)Nc1ccc(-n2nc(C(F)(F)F)cc2-c2ccc3c(ccc4ccccc43)c2)cc1` [AR-12], for which, in the assay on HEK293, the CC50 was determined as 6.68 µM. The MIC in the assay with Pseudomonas aeruginosa [1], against Cryptococcus neoformans, with Staphylococcus aureus, against Escherichia coli, in the assay on Klebsiella pneumoniae and with Pseudomonas aeruginosa [2] was above 20 µM throughout. The MIC against Acinetobacter baumannii and in the assay on Candida albicans was above 20 µM in each case.
Consider `COc1nc2ccc(Br)cc2cc1[C@@H](c1ccccc1)[C@@](O)(CCN(C)C)c1cccc2ccccc12` [BEDAQUILINE], for which the CC50 with HEK293 is above 20 µM. For the same molecule, the MIC in the assay with Pseudomonas aeruginosa [1], with Cryptococcus neoformans, against Staphylococcus aureus, in the assay with Escherichia coli, against Klebsiella pneumoniae and against Pseudomonas aeruginosa [2] was above 20 µM each time. Further, the MIC in the assay with Acinetobacter baumannii and in the assay with Candida albicans was above 20 µM each time.
